What is called EC50 is the midpoint of the concentration-response curve. In general, IC50 refers to the midpoint of a concentration-inhibition curve.

Assay [1] has as its system PDE4H (HARBS). The settings on record: cited from earlier work; for PDE4H/PDE4L ratio: references [24-26].
Assay [2] deals with PDE4H (HARBS). Description: Literature binding to brain HARBS (PDE4H). The settings on record: worked out from the cited EC50 values. The text has this:
Recently, in United States of American and Europe, the selective inhibitors for the PDE4 are considered as the important materials for treating asthma or chronic obstructive pulmonary disease (COPD). In addition, the clinical trials thereof are considered safe and effective, whereas they have side effects, such as vomiting, gastric hypersecretion, etc.. […] In the brain, there are two binding sites for rolipram, which are high (HARBS) and low affinity rolipram binding sites (LARBS), while in the periphery of bronchi and lung there exist only LARBS. Generally, the anti-inflammatory and the bronchodilatory effects of rolipram are considered as its ability to bind with LARBS [21]. […] Therefore, the pharmaceutical factories in the world are trying to develop drugs with high PDE4H/PDE4L ratio for separating the side effects from the main therapeutic effects, while some progresses are obtained. […] Although the respective PDE4H/PDE4L ratios of roflumilast and cilomilast are much higher than that of rolipram, they are not good enough. […] It seems having a good perspective.

The target in assay [3] is T1, high affinity rolipram binding sites (HARBS, PDE4H).
T1 construct: IC50 for displacement of [3H]-rolipram from HARBS; other: 300 μM, guinea pig, preliminary experimental data; other: guinea pig whole brain particulates; over 300 μM not available due
Description: Binding to particulate HARBS of whole brain, displacement of [3H]-rolipram (Assay II). The settings on record: 2 nM [3H]-rolipram, guinea pig whole brain particulates, FIG. 2; read-out: IC50 for displacement of [3H]-rolipram from HARBS. Details: species or system guinea pig. The protocol:
The binding experiments are carried on basis of the methods of Schneider et al. and Zhao et al. with a small modification. Under a protocol approved by the Animal Care and Use Committee of Taipei Medical University, five male guinea pigs (Hartley), weighing 500-600 g, were anesthetized. The whole brains taken therefrom were homogenized with in 10 volumes of cold medium (pH 6.5) containing 20 mM Bis-Tris, 2 mM benzamidine, 2 mM EDTA, 50 mM sodium chloride, 0.1 mM phenylmethanesulfonyl fluoride (PMSF), and 1 mM dithiothreitol. At 4° C., the homogenate was centrifuged at 170 g for 15 min for removing blood vessels and connective tissues, and the supernatant thereof was then re-centrifuged at 40,000 g for 30 min for separating the particulates from the cytosol of cells.
After incubation, the reaction was stopped by transferring the reaction vessel to a bath of crashed ice. Then the reaction mixture was filtered through a punched glass fiber filter (Whatman GF/B) placed in a mini funnel, which was adopted to a 1.5 ml of Eppendorff's tube for collecting the filtrate in the mini centrifuge at 1000 rpm for 10 seconds. By the same way (centrifugation), it is further washed with 0.3 ml reaction buffer each for three times. The Whatman GF/B filter was mixed with 2 ml of cocktail and counted by the β-scintillation counter (Backman, Fullerton, Calif., USA) for counting the radioactivity thereof.
(Displacement assays read how much labelled ligand stays bound in the presence of the test substance.)

A further assay has as its system PDE4L (LARBS). The settings on record: reference [23]; read-out: EC50 for binding PDE4L; cited from earlier work.

Like-named read-outs stand apart in the source and are kept apart here.

Regarding `O=C(Nc1c(Cl)cncc1Cl)C(=O)c1cn(Cc2ccc(F)cc2)c2ccc(O)cc12` [AWD-12-281, N-(3,5-dichloro-pyrid-4-yl)-[1-(4-fluorobenzyl)-5-hydroxy-indole-3-yl]-gly oxylic acid amide], the PDE4H/PDE4L ratio entry in the assay on PDE4H (HARBS) [1] is given as “about 11”.

Consider `COc1ccc([C@]2(C#N)CC[C@@H](C(=O)O)CC2)cc1OC1CCCC1` [cilomilast], for which, in the assay on PDE4H (HARBS) [1], the PDE4H/PDE4L ratio result is “about 1”.

In the case of `O=C(Nc1c(Cl)cncc1Cl)c1ccc(OC(F)F)c(OCC2CC2)c1` [roflumilast], the PDE4H/PDE4L ratio in the assay with PDE4H (HARBS) [1] is on record as 3.

Turning to `COc1ccc(C2CNC(=O)C2)cc1OC1CCCC1` (stereo not shown) [rolipram], the PDE4H/PDE4L ratio in the assay with PDE4H (HARBS) [2] is given as 0.002. Also, the EC50 in the assay with PDE4H (HARBS) [1] (reference [23], read-out: EC50 for binding PDE4H) was about 2 nM; with PDE4L (LARBS), about 1000 nM. The concentration for half-maximal inhibition (IC50) in assay [3] came to 7.4 nM.

These data come from patent US20060229358A1, “Pharmaceutical composition containing flavonoids” (Taipei Medical University, priority 2005, published 2006).
